Data from US7326788B2, “Quinolinone derivatives as inhibitors of c-fms kinase” (Janssen Pharmaceutica N.V., priority 2003, dated 2008).
pIC50: −log10 of the molar value.

Each compound was assayed against T1, c-fms (Homo sapiens, UniProt P07333) (assay: c-fms autophosphorylation, fluorescence polarization competition immunoassay). Conditions: 10 nM c-fms, 1 mM ATP, 5 mM MgCl2, 2% DMSO; averages of three independent measurements.
T1 construct: 3DP
Assay type: biochemical
Protocol: The assay was performed in black 96-well microplates (LJL BioSystems). The assay buffer used was 100 mM HEPES, pH 7.5, 1 mM DTT, 0.01% (v/v) Tween-20. Compounds were diluted in assay buffer containing 4% DMSO just prior to the assay. […] The kinase reaction was initiated by adding 2 μL of 5 mM ATP (Sigma) in assay buffer. The final concentrations in the assay were 10 nM c-fms, 1 mM ATP, 5 mM MgCl2, 2% DMSO. Control reactions were ran in each plate: in positive and negative control wells, assay buffer (made 4% in DMSO) was substituted for the compound; in addition, positive control wells received 1.2 μL of 50 mM EDTA.
The plates were incubated at room temperature for 45 min. At the end of the incubation, the reaction was quenched with 1.2 μL of 50 mM EDTA (EDTA was not added to the positive control wells at this point; see above). Following a 5-min incubation, each well received 10 μL of a 1:1:3 mixture of anti-phosphotyrosine antibody, 10X, PTK green tracer, 10X (vortexed), FP dilution buffer, respectively (all from PanVera, cat. #P2837). The plate was covered, incubated for 30 min at room temperature and the fluorescence polarization was read on the Analyst. The instrument settings were: 485 nm excitation filter; 530 nm emission filter; Z height: middle of well; G factor: 0.93. […] The reported IC50 values are averages of three independent measurements.

T1 sequence (P07333 20-972): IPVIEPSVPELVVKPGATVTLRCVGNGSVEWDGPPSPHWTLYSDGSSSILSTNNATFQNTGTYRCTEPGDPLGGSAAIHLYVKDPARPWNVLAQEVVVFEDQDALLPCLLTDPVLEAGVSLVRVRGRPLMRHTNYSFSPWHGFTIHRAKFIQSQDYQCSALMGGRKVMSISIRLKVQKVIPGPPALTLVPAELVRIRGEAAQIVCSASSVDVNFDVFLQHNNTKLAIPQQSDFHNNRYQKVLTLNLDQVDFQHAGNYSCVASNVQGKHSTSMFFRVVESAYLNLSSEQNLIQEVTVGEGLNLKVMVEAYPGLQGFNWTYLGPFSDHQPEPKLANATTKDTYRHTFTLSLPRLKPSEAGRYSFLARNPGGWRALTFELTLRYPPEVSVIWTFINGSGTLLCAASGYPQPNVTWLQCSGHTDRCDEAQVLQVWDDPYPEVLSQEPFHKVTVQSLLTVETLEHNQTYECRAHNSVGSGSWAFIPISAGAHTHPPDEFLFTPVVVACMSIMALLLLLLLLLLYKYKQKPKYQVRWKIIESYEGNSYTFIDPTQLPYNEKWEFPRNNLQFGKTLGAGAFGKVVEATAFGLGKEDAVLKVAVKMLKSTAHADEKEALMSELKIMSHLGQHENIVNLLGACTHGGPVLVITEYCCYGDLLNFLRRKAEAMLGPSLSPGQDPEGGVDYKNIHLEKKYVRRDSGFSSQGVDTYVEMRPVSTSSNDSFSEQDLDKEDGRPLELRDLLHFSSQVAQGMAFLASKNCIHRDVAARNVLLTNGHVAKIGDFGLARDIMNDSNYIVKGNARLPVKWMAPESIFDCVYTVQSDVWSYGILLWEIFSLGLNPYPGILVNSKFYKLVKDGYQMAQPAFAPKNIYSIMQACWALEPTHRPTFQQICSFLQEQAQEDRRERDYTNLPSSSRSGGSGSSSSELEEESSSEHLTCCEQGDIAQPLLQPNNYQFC

Structure (SMILES) | pIC50
CC(C)(C)c1cc(-c2c(-c3ccccc3)c3cc(Cl)ccc3[nH]c2=O)on1 | > 6.30
Cc1cc(-c2c(-c3ccccc3)c3cc(O)ccc3[nH]c2=O)on1 | 5.00 to 6.00
Cc1cc(-c2c(-c3ccccc3F)c3cc(Cl)ccc3[nH]c2=O)on1 | > 6.30
Cc1cc(-c2c(C3=CCCCCC3)c3cc(C#N)ccc3[nH]c2=O)on1 | > 6.30
Cc1cc(-c2c(-c3cc4ccccc4s3)c3cc(Cl)ccc3[nH]c2=O)on1 | 6.00 to 6.30
CCc1ccc(-c2c(-c3cc(C)no3)c(=O)[nH]c3ccc(C#N)cc23)cc1 | > 6.30
Cc1cc(-c2c(-c3ccccc3)c3cc(Br)ccc3[nH]c2=O)on1 | > 6.30
Cc1cc(-c2c(N3CCC(C)(C)CC3)c3cc(Cl)ccc3[nH]c2=O)on1 | 6.00 to 6.30
C=Cc1ccc(-c2c(-c3cc(C)no3)c(=O)[nH]c3ccc(C#N)cc23)cc1 | > 6.30
O=c1[nH]c2ccc(Cl)cc2c(-c2ccccc2)c1-c1nc2ccccc2[nH]1 | 5.00 to 6.00
CCc1ccc(-c2c(-c3cnc[nH]3)c(=O)[nH]c3ccc(C#N)cc23)cc1 | > 6.30
O=c1[nH]c2ccc(Cl)cc2c(-c2ccccc2)c1-c1cccnc1 | 5.00 to 6.00
Cc1cc(-c2c(N3CCCCC3)c3cc(Cl)ccc3[nH]c2=O)on1 | > 6.30
O=c1[nH]c2ccc(Cl)cc2c(-c2ccccc2)c1-c1ccccn1 | 5.00 to 6.00
CCOC(=O)c1cccc(-c2c(-c3ccccc3)c3cc(Cl)ccc3[nH]c2=O)c1 | < 5.00
Cc1cc(-c2c(-c3ccc(OC(F)(F)F)cc3)c3cc(C#N)ccc3[nH]c2=O)on1 | 6.00 to 6.30
O=C(O)c1cc(-c2c(-c3ccccc3)c3cc(Cl)ccc3[nH]c2=O)on1 | > 6.30
CC(=O)Nc1cc(-c2c(-c3ccccc3)c3cc(Cl)ccc3[nH]c2=O)on1 | 5.00 to 6.00
Cc1cc(-c2c(-c3ccccc3)c3cccc(Cl)c3[nH]c2=O)on1 | < 5.00

Structure (SMILES) | pIC50
O=c1[nH]c2ccc(Cl)cc2c(-c2ccccc2)c1-c1cncc(Br)c1 | 5.00 to 6.00
Cc1cc(-c2c(-c3cc4ccccc4o3)c3cc(Cl)ccc3[nH]c2=O)on1 | 5.00 to 6.00
COc1cccc(-c2c(-c3cc(C)no3)c(=O)[nH]c3ccc(Cl)cc23)c1 | 6.00 to 6.30
O=c1[nH]c2ccc(Cl)cc2c(-c2ccccc2)c1-c1cc(CCc2ccccc2)no1 | 5.00 to 6.00
Cc1cc(-c2c(-c3ccccc3)c3cc(C(O)CO)ccc3[nH]c2=O)on1 (stereo not shown) | < 5.00
Cc1cc(-c2c(-c3ccc(C(C)C)cc3)c3cc(C#N)ccc3[nH]c2=O)on1 | > 6.30
Cc1cc(-c2c(-c3ccccc3)c3cc(C(=O)O)ccc3[nH]c2=O)on1 | 5.00 to 6.00
Cc1cc(-c2c(-c3ccccc3)c3ccc(Cl)cc3[nH]c2=O)on1 | < 5.00
O=c1[nH]c2ccc(Cl)cc2c(-c2ccccc2)c1-c1nnn[nH]1 | < 5.00
CC(C)Cc1coc(-c2c(-c3ccccc3)c3cc(Cl)ccc3[nH]c2=O)n1 | < 5.00
Cc1cc(-c2c(-c3ccccc3)c3cc(CO)ccc3[nH]c2=O)on1 | < 5.00
O=c1[nH]c2ccc(Br)cc2c(-c2ccccc2)c1-c1cnc[nH]1 | > 6.30
Cc1cc(-c2c(-c3cccnc3)c3cc(Cl)ccc3[nH]c2=O)on1 | 5.00 to 6.00
Cc1cc(-c2c(-c3ccccn3)c3cc(Cl)ccc3[nH]c2=O)on1 | 5.00 to 6.00
Cc1cc(-c2c(-c3ccc4ccccc4c3)c3cc(Cl)ccc3[nH]c2=O)on1 | 5.00 to 6.00
Cc1cc(-c2c(-c3cccs3)c3cc(Cl)ccc3[nH]c2=O)on1 | > 6.30
O=c1[nH]c2ccc(Cl)cc2c(-c2ccccc2)c1-c1cn(Cc2ccccc2)nn1 | 6.00 to 6.30
Cc1cc(-c2c(-c3cccc(O)c3)c3cc(Cl)ccc3[nH]c2=O)on1 | > 6.30
